Our source for the melting point and IC50 values is US6407104B1, “Pyrrolo[1,2-a]pyrazine spla2 inhibitor” (Shionogi & Co., Ltd., priority 1998, dated 2002).

In series [1] the target is T1, recombinant human secretory phospholipase A2 (Homo sapiens, UniProt P14555).
T1 sequence (P14555 21-144): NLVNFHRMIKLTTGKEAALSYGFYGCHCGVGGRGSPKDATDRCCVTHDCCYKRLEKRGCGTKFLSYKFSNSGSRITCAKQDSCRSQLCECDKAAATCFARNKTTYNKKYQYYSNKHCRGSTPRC
Put plainly: Inhibition Test of Human Secretory Phospholipase A2 (chromogenic assay). Type of series: biochemical. The note with it: sPLA2 50 ng/well, 40° C., 30 minutes, OD 405 nm, 96 well microtiterplate. An excerpt:
Test Example: Inhibition Test of Human Secretory Phospholipase A2
In order to identify and evaluate an inhibitor of recombinant human secretory phospholipase A2, the following chromogenic assay is utilized. The assay herein has been applied for high volume screening wherein 96 well microtiterplate is used. A general explanation for such assay is described in “Analysis of Human Synovial Fluid Phospholipase A2 on Short Chain Phosphatidylcholine-Mixed Micelles: Development of a Spectrophotometric Assay Suitable for a Micortiterplate Reader” (Analytical Biochemistry, 204, pp 190-197, 1992 by Laure. J. Reynolds. Lori L. Hughes and Edward A. Dennis: the disclosure of which is incorporated herein for reference.
pH 7.5 (adjusted with NaOH)
pH 4.5 (adjusted with acetic acid)
1 mg of sPLA2 is dissolved in 1 ml of an enzyme buffer. Thereafter, the solution is maintained at 4° C.
In the assay, 5 μl of the solution is diluted with 1995 μl of the reaction buffer to be used.
198 mg of 5,5′-dithiobis-2-[…] (manufactured by Wako Pure Chemicals) is dissolved in 100 ml of H2O
H 7.5 (adjusted with NaOH)
100 mg of racemic 1,2-bis(heptanoylthio)-1,2-dideoxy-sn-glycero-3-phospholylcholine is dissolved in 1 ml of chloroform.
624.9 mg of Triton-X 100 is dissolved in the reaction buffer.
Enzyme Reaction: for 1 Plate of Microtiterplate
1) 0.106 ml of the substrate solution is put in a centrifugal tube, and nitrogen gas is jetted to remove the solvent. 0.54 ml of Triton-X 100 is added thereto, the mixture is stirred, thereafter it is sonified in a bath type sonification to dissolve. To the resulting product are added 17.8 ml of the reaction buffer and 0.46 ml of DTNB, and 0.18 ml each of the admixture is poured to wells of the 96 well microtiterplate.
2) 10 μl of a test compound (or solvent blank) are added in accordance with alignment of plates which has been previously set.
3) Incubation is effected at 40° C. for 15 minutes.
4) 20μl of an enzyme solution (sPLA2) which has been previously diluted (50 ng/well) are added to start reaction (40° C., 30 minutes).
5) Changes in absorbancy for 30 minutes are measured by a plate reader, and inhibition activity was calculated (OD: 405 nm).
6) IC50 was determined by plotting log concentration with respect to inhibition values within 10% to 90% inhibiting range.

Structures can show the parent of a compound that is named as a salt.

`CCc1c(C(=O)C(N)=O)c2c(OCC(=O)O)nc(C)cn2c1Cc1ccc(F)cc1` (as salt: Na) [Compound I-99] yielded a melting point of 250 to 265 °C.
The same measure, in the same setting: in the case of `CCc1c(C(=O)C(N)=O)c2c(OCC(=O)O)nc(C)cn2c1Cc1ccccc1-c1ccsc1` (as salt: Na) [Compound I-102] it was 260 to 263 °C.
The compound `CCc1c(C(=O)C(N)=O)c2c(OCC(=O)OC)nccn2c1Cc1ccccc1` [Compound I-1] came in with a melting point of 151 to 152 °C. In addition, the IC50 in series [1] amounted to 0.208 µM.
Turning to `CCc1c(C(=O)C(N)=O)c2c(OCC(=O)O)nccn2c1Cc1ccccc1` [Compound I-2, [6-Benzyl-7-ethyl-8-oxamoylpyrrolo[1,2-a]pyrazin-1-yl]oxyacetic acid], in series [1], the IC50 is 0.011 µM.
Regarding `COC(=O)COc1nccn2c(Cc3ccccc3)c(C3CC3)c(C(=O)C(N)=O)c12` [Compound I-3], the melting point was 177 to 179 °C. For the same compound, the IC50 in series [1] was found to be 2.62 µM.
The matching figures for `NC(=O)C(=O)c1c(C2CC2)c(Cc2ccccc2)n2ccnc(OCC(=O)O)c12` [Compound I-4]: 189 to 191 °C and 0.035 µM.
Consider `CCc1c(C(=O)C(N)=O)c2c(OCC(=O)OC)nccn2c1Cc1cccs1` [Compound I-5], for which the melting point lay in the range of 165 to 166 °C. In series [1], the concentration for half-maximal inhibition (IC50) was found to be 0.314 µM.
The like results for `CCc1c(C(=O)C(N)=O)c2c(OCC(=O)O)nccn2c1Cc1cccs1` [Compound I-6] were, in that order, 225 to 227 °C and 0.009 µM.
The like results for `CCc1c(C(=O)C(N)=O)c2c(OCC(=O)OC)nccn2c1CC1CCCCC1` [Compound I-7] were, in that order, 162 to 163 °C and 0.389 µM.
The matching figures for `CCc1c(C(=O)C(N)=O)c2c(OCC(=O)O)nccn2c1CC1CCCCC1` [Compound I-8]: 205 to 206 °C and 0.011 µM.
`CCc1c(C(=O)C(N)=O)c2c(OCC(=O)OC)nccn2c1Cc1cccc(OC)c1` [Compound I-9] gave a melting point of 154 to 155 °C. In addition, the IC50 in series [1] was 0.435 µM.
Consider `CCc1c(C(=O)C(N)=O)c2c(OCC(=O)O)nccn2c1Cc1cccc(OC)c1` [Compound I-10], for which the melting point lay in the range of 196 to 197.5 °C. Further, the IC50 in series [1] is 0.014 µM.
The like results for `CCc1c(C(=O)C(N)=O)c2c(OCC(=O)OC)nccn2c1Cc1ccc2ccsc2c1` [Compound I-11] were, in that order, 144 to 148 °C and 0.194 µM.
The matching figures for `CCc1c(C(=O)C(N)=O)c2c(OCC(=O)O)nccn2c1Cc1ccc2ccsc2c1` [Compound I-12]: 209 to 211 °C and 0.01 µM.
The matching figures for `COC(=O)COc1nccn2c(Cc3ccccc3)c(C)c(C(=O)C(N)=O)c12` [Compound I-13]: 182 to 183 °C and 0.157 µM.
The compound `Cc1c(C(=O)C(N)=O)c2c(OCC(=O)O)nccn2c1Cc1ccccc1` [Compound I-14] registered a melting point of 207 to 208 °C. Further, the half-inhibitory concentration (IC50) in series [1] amounted to 0.011 µM.
For the compound `CCc1c(C(=O)C(N)=O)c2c(OCC(=O)OC)nccn2c1CC1CCCC1` [Compound I-15], the melting point lay in the range of 165 to 166 °C. Also, in series [1], the IC50 was found to be 0.512 µM.
The like results for `CCc1c(C(=O)C(N)=O)c2c(OCC(=O)O)nccn2c1CC1CCCC1` [Compound I-16] were, in that order, 203 to 205 °C and 0.006 µM.
`CCc1c(C(=O)C(N)=O)c2c(OCC(=O)OC)nc(C)cn2c1Cc1ccccc1` [Compound I-17] had a melting point of 192 to 194 °C. The IC50 in series [1] came to 0.172 µM.
The like results for `CCc1c(C(=O)C(N)=O)c2c(OCC(=O)O)nc(C)cn2c1Cc1ccccc1` [Compound I-18, [6-Benzyl-7-ethyl-3-methyl-8-oxamoylpyrrolo[1,2-a]pyrazin-1-yl]oxyacetic acid] were, in that order, 207 to 208 °C and 0.009 µM.
Consider `CCc1c(C(=O)C(N)=O)c2c(OCC(=O)OC)nc(C)cn2c1Cc1ccc(F)cc1` [Compound I-19], for which the melting point fell in the range of 167 to 168 °C. In addition, in series [1], the IC50 came to 0.562 µM.
`CCc1c(C(=O)C(N)=O)c2c(OCC(=O)O)nc(C)cn2c1Cc1ccc(F)cc1` [Compound I-20] displayed a melting point of 204 to 205 °C.
The compound `CCc1c(C(=O)C(N)=O)c2c(OCC(=O)OC)nc(C)cn2c1Cc1ccccc1-c1ccccc1` [Compound I-21] yielded a melting point of 164.5 to 165.5 °C. Further, the IC50 in series [1] amounted to 0.041 µM.
`CCc1c(C(=O)C(N)=O)c2c(OCC(=O)O)nc(C)cn2c1Cc1ccccc1-c1ccccc1` [Compound I-22, [6-(2-Biphenylmethyl)-7-ethyl-3-methyl-8-oxamoylpyrrolo [1,2-a]pyrazin-1-yl]oxyacetic acid]: the melting point fell in the range of 192 to 194 °C. The half-inhibitory concentration (IC50) in series [1] was found to be 0.008 µM.
In the case of `CCc1c(C(=O)C(N)=O)c2c(OCC(=O)O)nc(C)cn2c1Cc1ccccc1-c1cccs1` [Compound I-52, [7-Ethyl-3-methyl-8-oxamoyl-6-(2-(2-thienyl)benzyl)pyrrolo[1,2-a]pyrazin-1-yl]oxyacetic acid], in series [1], the IC50 was determined as 0.005 µM.
Same read-out and setting: in the case of `CCc1c(C(=O)C(N)=O)c2c(OCC(=O)O)nc(C)cn2c1Cc1ccccc1C#Cc1ccccc1` [Compound I-54, [7-Ethyl-3-methyl-8-oxamoyl-6-(2-phenylethynylbenzyl)pyrrolo [1,2-a]pyrazin-1-yl]oxyacetic acid] it was 0.006 µM; in that of `CCc1c(C(=O)C(N)=O)c2c(SCC(=O)O)nc(C)cn2c1Cc1ccccc1-c1ccc(F)cc1` [Compound I-58], 0.025 µM; in that of `COC(=O)COc1nc(C)c(Cc2ccc(F)cc2)n2cc(C)c(C(=O)C(N)=O)c12` [Compound I-59], 15.8 µM.
Consider `Cc1cn2c(Cc3ccc(F)cc3)c(C)nc(OCC(=O)O)c2c1C(=O)C(N)=O` [Compound I-60], for which, in series [1], the IC50 is 1.21 µM.
Still for that read-out and setting: in the case of `CCc1c(C(=O)C(N)=O)c2c(OCC(=O)OC)nc(C)cn2c1Cc1ccccc1-c1cccnc1` [Compound I-65] it was 1.55 µM; in that of `CCc1c(C(=O)C(N)=O)c2c(OCC(=O)O)nc(C)cn2c1Cc1ccccc1-c1cccnc1` [Compound I-66], 0.045 µM; in that of `CCc1c(C(=O)C(N)=O)c2c(OCC(=O)OC)nc(C)cn2c1Cc1ccccc1-c1ccc(OC)cc1` [Compound I-67], 0.057 µM.
As to `CCc1c(C(=O)C(N)=O)c2c(OCC(=O)O)nc(C)cn2c1Cc1ccccc1-c1ccc(OC)cc1` [Compound I-68], in series [1], the IC50 is 0.008 µM.
Consider `CCc1c(C(=O)C(N)=O)c2c(OCC(=O)OCCN3CCOCC3)nc(C)cn2c1Cc1ccccc1-c1ccc(F)cc1` [Compound I-96], for which, in series [1], the IC50 was determined as 0.077 µM.
The same measure, in the same setting: in the case of `CCc1c(C(=O)C(N)=O)c2c(OCC(=O)OCCN3CCOCC3)nc(C)cn2c1Cc1ccccc1-c1cccs1` [Compound I-97] it was 0.078 µM.
On the same count and under the same terms, in the case of `CCc1c(C(=O)C(N)=O)c2c(OCC(=O)O)nc(C)cn2c1Cc1ccc(F)cc1` [Compound I-99] it was 0.021 µM.
Same read-out and setting: in the case of `CCc1c(C(=O)C(N)=O)c2c(OCC(=O)O)nc(C)cn2c1Cc1ccccc1-c1ccc(F)cc1` [Compound I-100] it was 0.021 µM; in that of `CCc1c(C(=O)C(N)=O)c2c(OCC(=O)O)nc(C)cn2c1Cc1ccccc1-c1cccs1` [Compound I-101], 0.019 µM; in that of `CCc1c(C(=O)C(N)=O)c2c(OCC(=O)O)nc(C)cn2c1Cc1ccccc1-c1ccsc1` [Compound I-102], 0.02 µM.

The term melting point denotes the temperature, or range, at which the solid turns liquid. For orientation: IC50 means the concentration that inhibits the measured activity by half.
